Series [1] addresses G12C variant of KRAS (Homo sapiens, UniProt P01116, G12C). The conditions noted are these: Patricelli et al., 2016, Lito et al.; cited from earlier work.
Series [2] has as its system human A549 lung cancer cells. The experiment in a line: Assay of cell viability with two drugs (kinase inhibitor + ptRNase), A549. In kind it is cell-based. The note with it: for Synergism with ptRNase?: A549 cells, two-drug combination with ptRNase. Here is the method: We measured cell viability with a tetrazolium dye-based assay for metabolic activity.
We used the EC50 values obtained from single-drug treatment (Table 1) to design subsequent drug combination experiments. Two-drug combination experiments were performed using a 5×5 matrix to interrogate 25 concentration ratios per combination.
(§1) The EC50 values obtained from single-drug cell viability assays were used to design subsequent drug combination experiments. Two-drug combination experiments were performed by using a 5×5 matrix in 96-well plates to interrogate 25 dosing pairs. Cells in complete growth medium were plated at 5,000 cells per well in a 96-well microplate, which was incubated for 24 h at 37° C. […] After 48 h, cell viability was evaluated as described above.
(§2) The dose-effect curve for each drug was determined based on experimental observations and was compared to the effect afforded by the two-drug combination to derive a CI value. The CI values for all combinations were calculated using CalcuSyn 2.0 from Biosoft (Cambridge, UK). […] Each CI value was the mean of the results from 3 biological replicates.

In series [3] the test system is H358 cells (KRAS G12C). The experiment in a line: Assay of cell viability with two drugs (ARS-853 + ptRNase), H358. The series is classed as cell-based, human. The note with it: 5×5 matrix, CI (FIG. 4C). Here is the method:
as §1, §2

Series [4] concerns human lung cancer cells (A549). The series is described as follows: Assay of cell viability with a single drug (tetrazolium dye-based MTS assay), A549. The conditions noted are these: single agent, 48 h, value ± SE, n = 3. Here is the method:
To test this hypothesis, we treated human lung cancer cells for 48 h with trametinib or with three other kinase inhibitors: PD 0332991 (which is a CDK4/CDK6 inhibitor), bosutinib (which is a Src family kinase inhibitor), or crizotinib (which is an ALK inhibitor) (Boschelli et al., 2001; Fry et al., 2004; Zou et al., 2007). We measured cell viability with a tetrazolium dye-based assay for metabolic activity. The ensuing EC50 values are listed in a Table 1 and in the table in FIG. 10.
(§3) Cells in complete growth medium were plated at 5,000 cells per well in a 96-well microplate, which was incubated for 24 h. […] After 48 h, the medium was removed, and cells were incubated for 2 h with CellTiter 96® MTS reagent from Promega. Absorbance was recorded on an M1000 fluorimeter from Tecan (Morrisville, NC) at 490 nm. Data were analyzed with Prism 5.0 software from GraphPad (La Jolla, CA). Values of EC50, which is the concentration of a drug that gives half-maximal cell viability, were calculated with the equation: […]
(§4) where y is cell viability, x is the concentration of drug, and h is the Hill coefficient. Data were plotted on a log scale with each data point being the mean of 3 biological replicates.
A general note: Tetrazolium dyes change colour on reduction, which living cells bring about.

In series [5] the test system is phosphorylation of MEK, ERK, RSK and RI in SK-MEL-28 cells. The series is described as follows: Immunoblotting and pull-down of biotinylated RI after kinase inhibitor treatment. The series is classed as cell-based, human. The note with it: for phosphorylation of MEK / phosphorylation of ERK and RSK: SK-MEL-28, 24 h; for phosphorylation of MEK: bosutinib 5 μM, crizotinib 2 μM, PD 0332991 2 μM, selumetinib 10 nM, dabrafenib 10 nM, trametinib 1 nM; for phosphorylation of ERK and RSK: same inhibitor concentrations as FIG. 6; for phosphorylation of RI (α-pSer, α-pThr): biotinylated RI captured from SK-MEL-28 cells, 24 h inhibitor treatment. Here is the method: FIGS. 6A-6B are immunoblots showing that inhibition of the ERK pathway prevents the phosphorylation of RI in SK-MEL-28 cells. Cells transfected to produce biotinylated RI were treated with bosutinib (5 μM), crizotinib (2 μM), PD 0332991 (2 μM), selumetinib (10 nM), dabrafenib (10 nM), or trametinib (1 nM) for 24 h. (A) Treatment with inhibitors of non-ERK pathway kinases has no effect on the phosphorylation of MEK, ERK, or RSK in cell lysates. Treatment with dabrafenib reduces the phosphorylation of MEK (α-pMEK ½ lane) as well as that of ERK and RSK (α-pERK ½, and α-pRSK lanes). Treatment with selumetinib and trametinib reduces the phosphorylation of ERK and RSK. (B) Treatment with inhibitors of non-ERK pathway kinases has no effect on phosphorylation of biotinylated RI, which was captured by using streptavidin-coated magnetic beads. Inhibition of ERK-pathway kinases diminishes phosphorylation of RI (α-pThr, and α-pSer lanes).
The inventors further confirmed the apparent effect of kinase inhibitors on RI phosphorylation by immunoblotting. Biotinylated RI was isolated by using streptavidin-coated magnetic beads from SK-MEL-28 cells after transient transfection for 48 h. To detect phosphorylated species, we used α-pSer or α-pThr. […] These biochemical data provide direct evidence that kinases in the ERK pathway are indeed responsible for phosphorylating RI, in agreement with the observed synergism.
Cells grown in a 10-cm dish were lysed with 1 mL of M-PER™ Mammalian Protein Extraction Reagent (a mammalian protein extraction reagent that contains a mild, nondenaturing detergent) containing PIERCE™ Protease Inhibitor Tablets (tablets containing protease inhibitors AEBSF, aprotinin, bestatin, E-64, leupeptin, and pepstatin A), PIERCE™ Phosphatase Inhibitor Tablets (sodium fluoride, sodium orthovanadate, sodium pyrophosphate, and beta-glycerophosphate for broad-spectrum inhibition of phosphatase activity), and DTT (1 mM). Cell lysates were subjected to centrifugation for 10 min at 14,000 g to remove cell debris, and the total protein concentration in the supernatant was determined with a Bradford protein assay. Protein (˜30 μg) was separated by SDS-PAGE using a gel from Biorad (Hercules, CA), and the resulting gel was subjected to transfer to a PVDF membrane with an IBLOT® 2 (a dry transfer device that performs western blotting transfer without the need for liquid buffers) dry transfer system. The membrane was blocked for 1 h in a solution of BSA (5% w/v) in TBS-Tween (TBS-T), washed, and then incubated overnight at 4° C. with an antibody (1:500 dilution) in TBS-T containing BSA (5% w/v). After another wash with TBS-T, membranes were incubated with secondary antibody (1:3000 dilution), washed again, and then detected with an Amersham ECL Select Western Blotting Detection Reagent and by an ImageQuant™ LAS4000 instrument from GE Healthcare (Marlborough, MA).
For pull-down assays, after isolation of the total protein, samples were incubated overnight at 4° C. with Streptavidin […]® (magnetic particles coated with streptavidin) Paramagnetic Particles from Promega. The beads were washed (3×) with PBS containing 1 mM DTT. Samples were eluted with 50 μL of SDS gel-loading dye and processed further for immunoblotting.
For orientation: In western blotting, separated proteins are transferred to a membrane and probed.

The subject of series [6] is V600E/K variants of BRAF. The conditions noted are these: Kefford et al., 2010; King et al., 2013; cited from earlier work.
Series [7] has as its system human melanoma cells (SK-MEL-28, A375, Malme-3M). The experiment in a line: Assay of cell viability with two drugs, melanoma cell lines. In kind it is cell-based. The conditions noted are these: across three melanoma cell lines (FIG. 5). How it is done: None of the agents were toxic to normal skin fibroblasts at the tested doses (FIG. 10).
as §1, §2

Series [8] concerns H358 cells (KRAS G12C). The series is described as follows: Assay of cell viability with a single drug (MTS assay), H358. The series is classed as cell-based, human. How it is done: as §3, §4

This is an account of results in patent US12195771B2, “Combination chemotherapy for the treatment of cancer” (WISCONSIN ALUMNI RESEARCH FOUNDATION, priority 2017, dated 2025).

The EC50 is the concentration that produces a half-maximal response.

Chain of G12C variant of KRAS (P01116 1-188 isoform P01116-2 G12C): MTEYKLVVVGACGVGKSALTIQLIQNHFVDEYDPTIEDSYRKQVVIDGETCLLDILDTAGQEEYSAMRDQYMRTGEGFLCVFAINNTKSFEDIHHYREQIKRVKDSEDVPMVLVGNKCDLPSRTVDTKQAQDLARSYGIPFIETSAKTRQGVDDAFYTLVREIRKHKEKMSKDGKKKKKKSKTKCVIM

For the molecule `C=CC(=O)N1CC(N2CCN(C(=O)CNc3cc(C4(C)CC4)c(Cl)cc3O)CC2)C1` [ARS-853], in series [1], the “cellular inhibitory activity against the G12C variant of KRAS” value is recorded as “robust cellular inhibitory activity”. Also, in series [2] (A549, 5×5 concentration matrix, kinase inhibitor 1 h then ptRNase, 48 h), the “synergy with the ptRNase judged by combination index (CI)” value is “additive effect”. The “Synergism with ptRNase?” value in series [2] is reported as “Yes”. In series [3], the “effect of combination with the ptRNase” value was “enhanced the efficacy of both agents”. In series [4], this molecule had an EC50 of 74 ± 8 µM.
`COc1cc(Nc2c(C#N)cnc3cc(OCCCN4CCN(C)CC4)c(OC)cc23)c(Cl)cc1Cl` [Bosutinib]: the EC50 in series [4] (Homo sapiens) was 0.73 ± 0.06 µM.
With `C[C@@H](Oc1cc(-c2cnn(C3CCNCC3)c2)cnc1N)c1c(Cl)ccc(F)c1Cl` [Crizetinib], in series [5], the “phosphorylation of MEK” value is on record as “insignificant effects”; the “phosphorylation of ERK and RSK” value is “insignificant effects”; the “phosphorylation of RI (α-pSer, α-pThr)” value is “Strong bands for phosphorylated RI”. The molecule further registered an EC50 in series [4] (Homo sapiens) of 0.11 ± 0.02 µM.
Turning to `CC(C)(C)c1nc(-c2cccc(NS(=O)(=O)c3c(F)cccc3F)c2F)c(-c2ccnc(N)n2)s1` [Dabrafenib], the “inhibitory activity against the V600E/K variants of BRAF” value in series [6] was “robust inhibitory activity”. Moreover, in series [7], the “effect of combination with trametinib (without ptRNase)” value is reported as “additive effect” and the “synergy of combination with the ptRNase” value was “strong synergy”. In addition, the “Synergism with ptRNase?” value in series [2] is listed as “Yes”. Further, in series [5], the “phosphorylation of MEK” value was “only a weak band of phosphorylated MEK”; the “phosphorylation of ERK and RSK” value is on record as “no detectable phosphorylation”; the “phosphorylation of RI (α-pSer, α-pThr)” value is on record as “no detectable phosphorylation”. This molecule registered an EC50 in series [4] (Homo sapiens) of 40 ± 5 µM.
Take `CC(=O)c1c(C)c2cnc(Nc3ccc(N4CCNCC4)cn3)nc2n(C2CCCC2)c1=O` [PD 0332991]: the “Synergism with ptRNase?” value in series [2] was “No”. Further, in series [5], the “phosphorylation of MEK” value is “insignificant effects”; the “phosphorylation of ERK and RSK” value is “insignificant effects”; the “phosphorylation of RI (α-pSer, α-pThr)” value is on record as “Strong bands for phosphorylated RI”. This molecule also showed an EC50 in series [4] (Homo sapiens) of 0.24 ± 0.04 µM.
With `Cn1cnc2c(F)c(Nc3ccc(Br)cc3Cl)c(C(=O)NOCCO)cc21` [Selumetinib], in series [4] (Homo sapiens), a half-maximal effect (EC50) was put at 43 ± 5 µM.
Same read-out and setting: then `CC(=O)Nc1cccc(-n2c(=O)n(C3CC3)c(=O)c3c(Nc4ccc(I)cc4F)n(C)c(=O)c(C)c32)c1` [Trametinib], with 5.7 ± 0.6 µM.

B1: R4C/G38R/R39G/N67R/G89R/S90R/V118C RNase 1 (protein, UniProt P07998 29-156, looked up, variant R4C G38R R39G N67R G89R S90R V118C)
Ribonuclease pancreatic: KESCAKKFQRQHMDSDSSPSSSSTYCNQMMRRRNMTQRGCKPVNTFVHEPLVDVQNVCFQEKVTCKRGQGNCYKSNSSMHITDCRLTNRRRYPNCAYRTSPKERHIIVACEGSPYVPCHFDASVEDST
notes: gift from Quintessence Biosciences
In the case of B1, the EC50 in series [8] (H358 cells (KRAS G12C), single agent, mean ± SEM, n = 3) is 3.6 ± 0.6 µM; in series [4] it was 62 ± 7 µM. For the same molecule, the “cytotoxicity to H358 cells compared to A549 cells” value in series [8] (H358 versus A549) was 20 fold.
